Laboratory results as given in patent US20200309767A1, “HIGH-THROUGHPUT IMAGING-BASED METHODS FOR PREDICTING CELL-TYPE-SPECIFIC TOXICITY OF XENOBIOTICS WITH DIVERSE CHEMICAL STRUCTURES” (priority 2015, published 2020).
Entries after “also recorded” stand apart in the source; their conditions may differ. Like-named read-outs stand apart in the source and are kept apart here.

Experiments:
[1] = test system: human proximal tubular cells (PTCs); conditions: cited from earlier work
[2] = test system: human kidney; conditions: cited from earlier work
[3] = test system: HK-2 cells; conditions: previously observed (Wu et al.); cited from earlier work
[4] = test system: liver; conditions: in vivo; cited from earlier work
[5] = test system: histone H2AX phosphorylated on serine 139 (γH2AX); type: cell-based, human
[6] = test system: primary PTCs; conditions: 1000 μg/mL
[7] = test system: lung; conditions: human, in vivo; cited from earlier work

Compound | PTC Toxicity ([1]; human, in vivo) | PTC-toxic ([1]; human, in vivo) | Nephrotoxic ([2]; in vivo) | apoptotic responses [3] | Hepatotoxic [4] | change in γH2AX levels [5] | PTC Toxicity ([1]; known in vivo group, Toxic / Non-toxic) | PTC-toxic ([1]; known toxicity flag 1/0) | change in γH2AX levels ([5]; HPTC-B results) | Nephrotoxic ([2]; known human kidney toxicity flag 1/0) | cells with increased annexin-V levels ([6]; 16 hours) [%] | increase in cell death rates ([6]; within the measured period (16 hours)) | Pulmonotoxic [7]
O=c1[nH]cc(F)c(=O)[nH]1 [5-Fluorouracil] | Toxic | 1 | 1 | lack of apoptotic responses | 1 |  |  |  |  |  |  |  | 
NC(=O)c1ncn([C@@H]2O[C@H](CO)[C@@H](O)[C@H]2O)n1 [Ribavirin] | Non-toxic | 0 | 0 |  | 0 | small or no change |  |  |  |  |  |  | 
C[C@@H]1Cc2c(Cl)cc(C(=O)N[C@@H](Cc3ccccc3)C(=O)O)c(O)c2C(=O)O1 [Ochratoxin A] |  |  |  |  | 0 |  | Toxic | 1 | increasing levels; also recorded: large increase | 1 | ~25 | very small or no increase | 
[Cl-].[Li+] [Lithium chloride] | Non-toxic | 0 | 1 |  | 0 | small or no change |  |  |  |  |  |  | 0
CCC[C@@H]1C[C@@H](C(=O)N[C@@H]([C@H]2O[C@H](SC)[C@H](O)[C@@H](O)[C@H]2O)[C@@H](C)O)N(C)C1 [Lincomycin] | Non-toxic | 0 | 1 |  | 0 | small or no change |  |  |  |  |  |  | 
Gentamicin | Toxic | 1 | 1 | lack of apoptotic responses | 0 |  |  |  |  |  |  |  | 
N.N.[Cl][Pt][Cl] [Cisplatin] |  |  |  |  |  | increasing levels |  |  |  |  |  |  | 
OCCO [Ethylene glycol] | Non-toxic | 0 | 1 |  | 0 |  |  |  |  |  |  |  | 0
C[n+]1ccc(-c2cc[n+](C)cc2)cc1 [Paraquat] | Toxic | 1 | 1 |  | 1 |  |  |  |  |  |  |  | 1
